Measured values published in patent US20190022225A1, “PROTOCOL FOR INCREASING LIFE EXPECTANCY IN A TEST SUBJECT” (Mayo Foundation for Medical Education and Research, priority 2015, published 2019).

What was measured:
[1] = tested on: non-senescent IMR90 cells; test: Cell counting assay, ABT-263 on non-senescent IMR90; type: cell-based, human; details: 3 μM, 24 hours
Method: (§1) To determine whether ABT-263 is selectively toxic to senescent cells compared to non-senescent cells, a cell counting assay was used to determine cell survival following treatment with ABT-263. […] Each condition was seeded in three wells and counted independently. Cells were counted after a 24 hour exposure to ABT-263 (or control culture).

[2] = tested on: senescent (irradiated) IMR90 cells; test: Cell counting assay, ABT-263 on senescent IMR90; type: cell-based, human; details: 3 μM, 24 hours
Method: as §1

[3] = tested on: senescent (irradiated) IMR90 cells; test: CellTiter-Glo cell viability assay, senescent IMR90; type: cell-based, human
Method: (§2) To determine whether ABT-263 is selectively toxic to senescent cells compared to non-senescent cells, a cell viability assay was used to assess cell survival following treatment with ABT-263. IMR90 cells (human primary lung fibroblasts (IMR90) (IMR-90 (ATCC® CCL-186™, Mannassas, Va.) were seeded in six well plates, and cells were induced to senescence with 10 Gy of ionizing radiation (IR) (Day 0). The media was refreshed every 3 days. The senescent phenotype is allowed to develop for 7 days at which point a cell count was made to determine the baseline number of cells followed by seeding into 96-well plates. On day 8, the senescent cells (irradiated) and the non-senescent cells (the non-radiated cells), were exposed to serial dilutions of ABT-263 for a period of 3 days. ABT-263 concentrations ranged from 0.5 nM to 3 μM. Each condition was seeded in triplicate.
(§3) After three days of treatment (Day 11), cells were assayed for cell survival using the commercially available CellTiter-Glo® (CTG) Luminescent Cell Viability Assay (Promega Corporation, Madison, Wis.). The assay determines the number of viable cells in culture based on the quantitation of ATP present which is an indicator of metabolically active cells.
(§4) The experiments performed for assessing the effect of these other Bcl-2 inhibitors were performed essentially as described in Example 7. Cells were exposed to ABT-199 at serial dilution concentrations ranging from 15 nM to 100 μM (FIGS. 26 and 27). Cells were exposed to Obatoclax at concentrations ranging from 1.4 nM to 9 μM (FIG. 28).
(§5) The effect of ABT-263 in combination with the Akt inhibitor MK-2206 was tested for selective toxicity of senescent cells compared to non-senescent cells in IMR90 cells. The methods of Example 7 were repeated except that cell cultures were exposed to 10 nM MK-2206 (Selleckem, Cat# S1078) in addition to serial dilutions of ABT-263.

[4] = tested on: non-senescent IMR90 cells; test: CellTiter-Glo cell viability assay, non-senescent IMR90; type: cell-based; details: Homo sapiens, IMR-90, 72 h; IMR90, 3 days, CellTiter-Glo; read-out: IC50 on non-senescent cells
Method: as §2, §3, §4, §5

[5] = tested on: senescent Primary Renal Cortical Cells (renal epithelial cells); test: CellTiter-Glo cell viability assay, senescent renal epithelial cells; type: cell-based; details: 72 h, 3 days
Method: as §2, §3
(§6) The methods of Example 7 were repeated in other cell strains. […]

[6] = tested on: non-senescent Primary Renal Cortical Cells (renal epithelial cells); test: CellTiter-Glo cell viability assay, non-senescent renal epithelial cells; type: cell-based; details: 72 h, 3 days
Method: as §2, §3, §6

[7] = tested on: senescent HCA2 foreskin fibroblast cells; test: CellTiter-Glo cell viability assay, senescent HCA2; type: cell-based; details: 72 h; HCA2, 3 days
Method: as §2, §3, §6

[8] = tested on: non-senescent HCA2 foreskin fibroblast cells; test: CellTiter-Glo cell viability assay, non-senescent HCA2; type: cell-based; details: 72 h; HCA2, 3 days; not toxic up to highest concentration
Method: as §2, §3, §6

[9] = tested on: senescent (IMR90 Sen(IR)) and non-senescent (IMR90 NS) cells; test: Senescent cell killing in presence or absence of pan-caspase inhibitor Q-VD-OPh (CellTiter-Glo); type: cell-based, human
Method: After senescence was established, cells were re-seeded into 96 well plates. […] At the end of the assay time period, cells were counted. Each condition was seeded in three plate wells and counted independently. […] Cell survival was determined using the commercially available CellTiter-Glo® Luminescent Cell Viability Assay (Promega Corporation, Madison, Wis.). The assay determines the number of viable cells in culture based on the quantitation of ATP present which is an indicator of metabolically active cells.
After senescence was established, cells were re-seeded into 96 well plates. […] At the end of the assay time period, cells were counted. Each condition was seeded in three plate wells and counted independently. […] Cell survival was determined using CellTiter-Glo® Luminescent Cell Viability Assay (Promega Corporation, Madison, Wis.). The assay determines the number of viable cells in culture based on the quantitation of ATP present which is an indicator of metabolically active cells.

[10] = tested on: 3MR or INK-ATTAC mice exposed to cigarette smoke; test: Cigarette smoke exposure model (COPD), oxygen saturation; type: in vivo, mouse; details: after 2 months of cigarette smoke exposure
Method: Six week-old 3MR (n=35) or INK-ATTAC (n=35) mice were chronically exposed to cigarette smoke generated from a Teague TE-10 system, an automatically-controlled cigarette smoking machine that produces a combination of side-stream and mainstream cigarette smoke in a chamber, which is transported to a collecting and mixing chamber where varying amounts of air is mixed with the smoke mixture. […] Mice received a total of 6 hours of cigarette smoke exposure per day, 5 days a week for 6 months. Each lighted cigarette (3R4F research cigarettes containing 10.9 mg of total particulate matter (TPM), 9.4 mg of tar, and 0.726 mg of nicotine, and 11.9 mg carbon monoxide per cigarette [University of Kentucky, Lexington, Ky.]) was puffed for 2 seconds and once every minute for a total of 8 puffs, with the flow rate of 1.05 L/min, to provide a standard puff of 35 cm^3. The smoke machine was adjusted to produce a mixture of side stream smoke (89%) and mainstream smoke (11%) by smoldering 2 cigarettes at one time. The smoke chamber atmosphere was monitored for total suspended particulates (80-120 mg/m^3) and carbon monoxide (350 ppm). Beginning at day 7, (10) INK-ATTAC and (10) 3MR mice were treated with AP20187 (3×per week) or gancyclovir (5 consecutive days of treatment followed by 16 days off drug, repeated until the end of the experiment), respectively. An equal number of mice received the corresponding vehicle. The remaining 30 mice (15 INK-ATTAC and 15 3MR) were evenly split with 5 of each genetically modified strain placed into three different treatment groups. One group (n=10) received Nutlin-3A (25 mg/kg dissolved in 10% DMSO/3% Tween-20 in PBS, treated 14 days consecutively followed by 14 days off drug, repeated until the end of the experiment). One group (n=10) received ABT-263 (Navitoclax) (100 mg/kg dissolved in 15% DMSO/5% Tween-20, treated 7 days consecutively followed by 14 days off drug, repeated until the end of the experiment), and the last group (n=10) received only the vehicle used for ABT-263 (15% DMSO/5% Tween-20), following the same treatment regimen as ABT-263.
After two months of cigarette smoke exposure, lung function was assessed by monitoring oxygen saturation using the MouseSTAT PhysioSuite pulse oximeter (Kent Scientific). Animals were anesthetized with isoflurane (1.5%) and the toe clip was applied. Mice were monitored for 30 seconds and the average peripheral capillary oxygen saturation (SpO2) measurement over this duration was calculated.

[11] = tested on: paclitaxel treated p16-3MR mice; test: Chemotherapy related side effects: voluntary exercise (wheel counts) after paclitaxel in p16-3MR mice; type: in vivo, mouse; details: ABT-263 100 mg/kg ip daily 7 days; ganciclovir 25 mg/kg ip daily 3 days
Method: ABT-263 (100 mg/kg) was administered intraperitoneally daily for seven days after paclitaxel administration. Two days after the last dose of ABT-263, all groups of animals were housed in metabolic cages (promethion, sable systems international, Las Vegas, Nev.) to monitor voluntary exercise as determined by wheel counts. Data were collected and analyzed two days later. Clearance of senescent cells by ABT-263 and ganciclovir restored approximately 70% of wheel count reduction caused by chemotherapy treatment.

CC1(C)CCC(c2ccc(Cl)cc2)=C(CN2CCN(c3ccc(C(=O)NS(=O)(=O)c4ccc(N[C@H](CCN5CCOCC5)CSc5ccccc5)c(S(=O)(=O)C(F)(F)F)c4)cc3)CC2)C1 [ABT-263, 4-[4-[[2-(4-chlorophenyl)-5,5-dimethylcyclohexen-1-yl]methyl]piperazin-1-yl]-N-[4-[[(2R)-4-morpholin-4-yl-1-phenylsulfanylbutan-2-yl]amino]-3-(trifluoromethylsulfonyl)phenyl]sulfonylbenzamide]
cell growth / survival of non-senescent cells versus starting level [1]: did not decrease the cell growth below the starting level | cell counts as percent of counts before treatment [2]: 28% | IC50 ([3]; Homo sapiens, IMR-90, 72 h, IMR90, 3 days, CellTiter-Glo, read-out: IC50 on senescent cells): 140 nM | in vitro theoretical therapeutic index ([3]; IMR90, non-senescent versus senescent IC50): 17 | IC50 [4]: 2400 nM | IC50 [5]: 25 nM | IC50 [6]: 430 nM | IC50 [7]: 410 nM | IC50 [8]: > 3000 nM | selective killing of senescent cells ([9]; IMR90, 3 days): selectively kills senescent cells | percent of surviving senescent cells in the presence of the pan-caspase inhibitor ([9]; Q-VD-OPh 20 μM, WEHI-539 1.67 or 5 μM, ABT-263 0.33 or 1 μM, 3 days): increased | senolytic activity in the presence of a caspase inhibitor ([9]; panCaspase inhibitor Q-VD-OPh): inhibited | SpO2 levels versus untreated controls [10]: statistically significant increases | restoration of wheel count reduction caused by chemotherapy treatment [11]: approximately 70%
